Structures are written as SMILES. “And” between values parts separate entries of the source, which are not always exact repeats. Equal entries are not always repeated.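 How tested: cells in 96-well plates exposed to compound for 48 hours at five concentrations. Here, GI50 denotes the concentration required for 50% inhibition of growth. Definition used: TGI = concentration required for complete inhibition of growth.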 Some results are limits rather than exact numbers.

Test systems include A498 renal; RXF 393 renal; NCI-H226 lung; NCI-H522 lung; KM12 colon; ACHN renal; OVCAR-4 ovarian; SF-268 CNS; NCI-H460 lung; EKVX NSCLC.
Common to all, as to experiment: NCI tumour cell line growth inhibition, 48 h

With `O=C(O)c1ccc(C(=O)O)c2c(C(=O)O)ccc(C(=O)O)c12`, the TGI with A498 renal, in the assay with RXF 393 renal, in the assay on NCI-H226 lung, in the assay on NCI-H522 lung, in the assay with KM12 colon and in the assay with ACHN renal was greater than 100 µM in each case. Further, the TGI in the assay with OVCAR-4 ovarian, with SF-268 CNS, in the assay on NCI-H460 lung and with EKVX NSCLC was greater than 100 µM each time.
Consider `CS/C(=C(\S)c1ccccc1)c1ccccc1`, for which the TGI in the assay on A498 renal, in the assay on RXF 393 renal, in the assay with NCI-H226 lung, in the assay with NCI-H522 lung, with KM12 colon and with ACHN renal was greater than 100 µM each time. The TGI in the assay with OVCAR-4 ovarian, in the assay with SF-268 CNS, in the assay with NCI-H460 lung and with EKVX NSCLC was greater than 100 µM each time.
As for `CSc1ccccc1C#C/C=C\C#Cc1ccccc1N`, the GI50 was 4.18 µM in the assay on A498 renal; 24.5 µM with RXF 393 renal; 13.4 µM with NCI-H226 lung; 0.527 µM with NCI-H522 lung; 2.92 µM in the assay with KM12 colon; 20.1 µM in the assay on ACHN renal. The GI50 in the assay with OVCAR-4 ovarian is 29.9 µM; in the assay with SF-268 CNS it was 3.3 µM; in the assay with NCI-H460 lung it was 4.69 µM; with EKVX NSCLC, 16.9 µM. Besides, the TGI was 14.5 µM in the assay on A498 renal; greater than 100 µM in the assay with RXF 393 renal; 52 µM in the assay on NCI-H226 lung; 32.4 µM in the assay with NCI-H522 lung; 10.4 µM in the assay with KM12 colon; greater than 100 µM in the assay on ACHN renal. The TGI in the assay on OVCAR-4 ovarian came out at 71 µM; with SF-268 CNS, 25.4 µM; in the assay on NCI-H460 lung, 26 µM; in the assay on EKVX NSCLC it was 57.4 µM.
Consider `CSc1nc(NC2OC(COC(C)=O)C(OC(C)=O)C(OC(C)=O)C2OC(C)=O)c(N=CC=Nc2c(NC3OC(COC(C)=O)C(OC(C)=O)C(OC(C)=O)C3OC(C)=O)nc(SC)n(C)c2=O)c(=O)n1C` (centres undefined), for which the GI50 with A498 renal is greater than 50 µM; in the assay with RXF 393 renal it was 12.4 µM; in the assay with NCI-H522 lung, greater than 50 µM; with KM12 colon it was greater than 50 µM; with ACHN renal, 27.8 µM; with OVCAR-4 ovarian, greater than 50 µM. In addition, the GI50 in the assay with SF-268 CNS, with NCI-H460 lung and with EKVX NSCLC was greater than 50 µM in each case. Moreover, the TGI with A498 renal is > 50 µM and 82.8 µM; in the assay with RXF 393 renal, 46.2 µM and 61.5 µM; in the assay with NCI-H226 lung, > 50 µM and 97.8 µM; with NCI-H522 lung, greater than 100 µM; with KM12 colon, greater than 100 µM; with ACHN renal, 50 µM and > 100 µM. Moreover, the TGI in the assay with OVCAR-4 ovarian, with SF-268 CNS, with NCI-H460 lung and in the assay on EKVX NSCLC was greater than 100 µM throughout.
